Assay results taken from patent publication US20080300182A1, “Eye disease treating agent and method for treating eye disease” (NIDEK CO., LTD., priority 2005, published 2008).
Ends that are not written are not given here.

Columns and labels:
retinal ganglion cell [1] = assay: Kainic acid-induced retinal ganglion cell death model, number of cells remaining in the ganglion cell layer (Test Example 4); assay type: in vivo, rat
Procedure: Retinal nerve protecting effect was examined using a kainic acid-induced retinal ganglion cell death animal model.
Male Wister/ST rats of 8 weeks of age were used in the test. After anesthesia by intraperitoneal administration of pentobarbital sodium, PACAP 38 (10 μmol) dissolved in sterile physiological saline or the administration solvent (physiological saline) as the negative control was injected once into the vitreous body in the same manner as in Test Example 3. Two days after the PACAP administration, kainic acid (5 nmol) was injected once into the vitreous body of each animal under anesthesia by a mixed liquid of ketamine and seractal. 7 days after the kainic acid administration, all animals were sacrificed by bleeding through the cutting of abdominal aorta under diethyl ether inhalation anesthesia and their eyeballs were enucleated. The enucleated eyeballs were fixed by soaking in a 1% formaldehyde-1.25% glutaraldehyde mixed fixing liquid. The fixed eyeballs were embedded in paraffin, and then retinal tissue sections of 4 μm in thickness traversing the optic disc were prepared and subjected to hematoxylin eosin staining. Effect of PACAP was judged by counting the number of cells remaining in the ganglion cell layer within a region of from 0.5 to 1.7 mm from the optic disc of each tissue specimen. […]

retinal ganglion cell [2] = assay: Kainic acid-induced retinal ganglion cell death model, retinal tissue pNF-H content by sandwich ELISA (Test Example 5); assay type: in vivo, rat; conditions: 7 days after exposure
Excerpt: In order to clarify whether or not the IL-6 which is expressed in a delayed manner in Muller cell (Test Example 3) is concerned in the retinal ganglion cell death inhibitory effect of PACAP confirmed in Test Example 4, this was verified using the same animal model and using neurofilament (phosphorylated neurofilament-H; pNF-H) protein in the retinal tissue as the index. It is known that pNF-H is a protein which is specifically expressed in the retinal ganglion cell, and that the content of this protein in the retinal tissue can be used as a quantitative index for estimating degree of the retinal ganglion cell death.
A group in which 10 μmol of PACAP 38 is injected into the vitreous body 2 days before the kainic acid exposure in the same manner as in Test Example 4 (pretreatment group) and another group in which the same amount of PACAP is injected simultaneously with kainic acid (simultaneous treatment group) were set up as the test groups. The retinal tissue was collected 7 days after the kainic acid exposure, and the pNF-H protein was extracted. Amount of the pNF-H protein in retinal tissue was measured by the sandwich ELISA.

[3] = system: Muller cell of the retina; assay: IL-6 expression in retinal tissue after administration into the vitreous body, anti-IL-6 immunostaining (Test Example 3); assay type: in vivo, rat; conditions: 10^−11 mol PACAP
Procedure: The PACAP 38 was dissolved in sterile physiological saline to a concentration of 3.3 nmol/ml. This was stored under ice-cooling until just before the administration.
Male Wister/ST rats of 8 weeks of age were used in this test. After anesthesia by intraperitoneal administration of pentobarbital sodium, 3 μl per one eye of the administration liquid was injected from about 1 mm behind the limbus using a Hamilton glass syringe equipped with a 30G needle, that is, the liquid was injected into the vitreous body in such a manner that 10^−11 mol of PACAP reached the retina. After 1, 2, 3 and 7 days of the PACAP administration, each animal was sacrificed by bleeding through the cutting of abdominal aorta under diethyl ether inhalation anesthesia, and then both eyeballs were enucleated, and fixed with ice-cold 4% paraformaldehyde-0.1 M phosphate buffer (pH 7.4). The fixed eyeballs were subjected to sucrose replacement and then freeze-embedded to prepare frozen sections of 10 μm in thickness. By applying fluorescence immunostaining to each of the frozen sections using an anti-IL-6 antibody, expression of IL-6 in the retina was observed.

cultured rat Muller cell = assay: IL-6 production acceleration effect in cultured Muller cell (Test Example 1; IL-6 measured by B9 cell bioassay); assay type: cell-based; conditions: 24 hours after addition of PACAP 38 (10^−12 M, 10^−9 M to 10^−6 M), vs no addition, p<0.01
Procedure: Wister/ST rats of 14 days of age (20 animals) were sacrificed by bleeding through the cutting of abdominal aorta under diethyl ether anesthesia. The 40 eyeballs were immediately enucleated and soaked in Dulbecco's modified minimum essential medium (DMEM) containing 25 mM HEPES and antibiotics (penicillin 100 U/ml, streptomycin 100 μg/ml, amphotericin B 0.25 μg/ml), one night at room temperature under shade. Next, the eyeballs were transferred into DMEM containing 0.1% trypsin and 70 U/ml collagenase and incubated at 37° C. for 60 minutes. Thereafter, retinas were removed from the eyeballs and transferred into DMEM supplemented with antibiotics and 10% FBS (medium for culturing use) (8 retinas/10 ml DMEM). The retinas were dispersed and suspended until they became small aggregates through the pipetting using a Pasteur pipette having thinned tip. This cell suspension was seeded onto a polystyrene dish (Asahi Techno Glass) and cultured by keeping at 37° C. under an environment of 5% CO2/95% air. […]
The IL-6 concentration in the thus recovered Muller cell culture supernatant was measured using B9 cell which is a hybridoma sub-clone of an IL-6-dependent mouse. […] Regarding the bioassay of IL-6, growth of B9 cell was determined as the fluorescence intensity by Alamar Blue.

pituitary adenylate cyclase-activating polypeptide (HSDGIFTDSYSRYRKQMAVKKYLAAVLGKRYKQRVKNK; ends and bridges not checked; listed as Ovis sp.) [PACAP 38]
Average value of the number of cells remaining in the ganglion cell layer (retinal ganglion cell [1]; PACAP 38 (10 μmol) intravitreal 2 days before kainic acid (5 nmol), 7 days after kainic acid, 0.5 to 1.7 mm from optic disc): 34.8 cells/mm | inhibition of the reduction of the number of cells caused by kainic acid (retinal ganglion cell [1]; PACAP 38 (10 μmol) intravitreal 2 days before kainic acid, vs physiological saline control, p<0.05): found with a significance | reduction of the amount of pNF-H protein in the retinal tissue induced by kainic acid (retinal ganglion cell [2]; pretreatment group: 10 μmol PACAP 38 intravitreal 2 days before kainic acid, vs saline, p<0.01): inhibited with a significance | effect to inhibit reduction of the amount of pNF-H (retinal ganglion cell [2]; simultaneous treatment group: 10 μmol PACAP 38 injected simultaneously with kainic acid): completely absent | Expression of IL-6 in the retina ([3]; 1 day after intravitreal administration): not found | IL-6-positive cell in the retina ([3]; 2 days after intravitreal administration): frequently observed | IL-6-positive cell in the retina ([3]; 3 days after intravitreal administration): frequently observed | Expression of IL-6 in the retina ([3]; 7 days after intravitreal administration): hardly observed | IL-6 concentration in the culture liquid (cultured rat Muller cell): significantly increased
